Structures are written as SMILES.

In BindingDB's records for patent US10227350 (Gilead Sciences, 2019) one finds IC50 data, which are given here for 2 compounds.

The assay deals with Phosphatidylinositol 4,5-bisphosphate 3-kinase catalytic subunit beta isoform (Homo sapiens, UniProt P42338). The experiment in a line: TR-FRET Assay. The procedure: Class I PI3K isoforms were expressed and purified as heterodimeric recombinant proteins. All assay reagents and buffers for the TR-FRET assay were purchased from Millipore. […] The compounds were added to the assay solution and incubated for 30 minutes at 25° C.
In general terms: Time-resolved FRET reads energy transfer from a long-lived donor to a nearby acceptor.

Phosphatidylinositol 4,5-bisphosphate 3-kinase catalytic subunit beta isoform, sequence (P42338 whole entry, canonical isoform): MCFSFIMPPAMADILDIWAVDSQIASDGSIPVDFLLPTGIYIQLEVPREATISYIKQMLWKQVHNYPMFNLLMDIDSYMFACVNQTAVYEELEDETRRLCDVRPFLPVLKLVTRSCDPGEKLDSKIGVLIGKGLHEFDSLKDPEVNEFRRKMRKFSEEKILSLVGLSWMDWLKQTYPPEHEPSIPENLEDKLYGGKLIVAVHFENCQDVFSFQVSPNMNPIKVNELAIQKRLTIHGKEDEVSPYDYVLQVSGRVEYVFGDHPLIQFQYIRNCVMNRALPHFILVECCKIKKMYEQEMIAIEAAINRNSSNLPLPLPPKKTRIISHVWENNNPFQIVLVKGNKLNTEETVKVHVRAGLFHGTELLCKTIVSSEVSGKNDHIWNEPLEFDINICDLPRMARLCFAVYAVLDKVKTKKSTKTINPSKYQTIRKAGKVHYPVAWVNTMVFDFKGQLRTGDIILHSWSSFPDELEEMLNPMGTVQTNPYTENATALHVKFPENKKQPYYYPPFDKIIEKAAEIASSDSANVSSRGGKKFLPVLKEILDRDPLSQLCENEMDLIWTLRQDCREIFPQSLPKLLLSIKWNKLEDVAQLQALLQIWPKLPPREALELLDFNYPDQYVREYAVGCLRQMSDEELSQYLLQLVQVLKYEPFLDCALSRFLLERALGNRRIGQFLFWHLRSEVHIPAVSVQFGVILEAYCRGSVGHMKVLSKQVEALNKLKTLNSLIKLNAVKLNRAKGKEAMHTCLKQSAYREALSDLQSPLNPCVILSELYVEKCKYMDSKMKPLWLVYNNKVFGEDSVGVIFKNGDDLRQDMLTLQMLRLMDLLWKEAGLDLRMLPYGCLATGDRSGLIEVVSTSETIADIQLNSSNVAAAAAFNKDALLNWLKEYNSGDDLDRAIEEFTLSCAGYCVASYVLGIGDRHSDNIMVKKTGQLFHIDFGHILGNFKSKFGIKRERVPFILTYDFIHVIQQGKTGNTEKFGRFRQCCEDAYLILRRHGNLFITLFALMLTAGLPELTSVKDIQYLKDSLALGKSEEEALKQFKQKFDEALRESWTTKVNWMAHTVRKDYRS

By IC50 is commonly meant the concentration at which inhibition is half-maximal. Read a low IC50 as inhibition by little substance. In the case of `Cc1cc(-c2cc(-c3nnc[nH]3)c3nc(C)n(-c4ccnc5c(Cl)cccc45)c3c2)ccn1` [US10227350, Compound 40], inhibition was half-maximal at 5 nM (IC50).
On to `CCCc1nc2c(-c3nnc[nH]3)cc(-c3ccnc(N)c3F)cc2n1-c1ccnc2c(Cl)ccc(F)c12` [US10227350, Compound 84], for which half-maximal inhibition (IC50) was put at 4 nM.
